Assay results as given in ChEMBL document CHEMBL6078688, “Discovery of Novel MyD88 Inhibitor A5S to Alleviate Acute Lung Injury with Favorable Drug-like Properties” (J Med Chem, 2024).
Activity calls are given as the source filed them. The calls are words filed in the database; no cut-off is given here.

What was measured:
J774.A1 [1] = experiment: Cytotoxicity against mouse J774.A1 cells at 3 to 12 uM by MTT assay; assay type: toxicity, cell-based; settings: j774.a1, 12 µM, dose 3-12 µM
J774.A1 [2] = experiment: Anti-inflammatory activity in LPS-induced mouse J774.A1 cells assessed as inhibition of IL-6 production by ELISA; assay type: functional, cell-based
J774.A1 [3] = experiment: Inhibition of NF-kappaB signalling pathway in LPS-induced mouse J774.A1 cells assessed as upregulation of IkappaB-alpha expression by Western blotting analysis; assay type: cell-based
J774.A1 [4] = experiment: Inhibition of NF-kappaB signalling pathway in LPS-induced mouse J774.A1 cells assessed as downregulation of p65 phosphorylation by Western blotting analysis; assay type: cell-based
[5] = target: T1, Myeloid differentiation primary response protein MyD88 (Homo sapiens, UniProt Q99836); experiment: Binding affinity to CM5 sensor chip immobilized human MyD88 TIR domain assessed as dissociation constant by SPR analysis
[6] = target: T1, Myeloid differentiation primary response protein MyD88; experiment: Binding affinity to CM5 sensor chip immobilized human MyD88 DD domain assessed as dissociation constant by SPR analysis
[7] = target: T1, Myeloid differentiation primary response protein MyD88; experiment: Inhibition of FLAG tagged and HA tagged MYD88 (unknown origin) expressed in LPS induced HEK293T cells at 20 uM incubated for 1 hr by coimmunoprecipitation analysis; assay type: cell-based
Mus musculus [8] = experiment: Antiinflammatory activity in cecal ligation and puncture induced sepsis C57BL/6 mouse model assessed as reduction in IL-6 level in serum at 20 mg/kg,po administrated with compound for 6 hrs followed by CLP induction and measured after 12 hrs by ELISA; assay type: functional, organism-based; settings: time 18.0 hrs
Mus musculus [9] = experiment: Antiinflammatory activity in cecal ligation and puncture induced sepsis C57BL/6 mouse model assessed as reduction in IL-6 level in BALF at 20 mg/kg,po administrated with compound for 6 hrs followed by CLP induction and measured after 12 hrs by ELISA; assay type: functional, organism-based; settings: time 18.0 hrs
Mus musculus [10] = experiment: Antiinflammatory activity in cecal ligation and puncture induced sepsis C57BL/6 mouse model assessed as reduction in TNF-alpha level in BALF at 20 mg/kg,po administrated with compound for 6 hrs followed by CLP induction and measured after 12 hrs by ELISA; assay type: functional, organism-based; settings: time 18.0 hrs
Mus musculus [11] = experiment: Antiinflammatory activity in cecal ligation and puncture induced sepsis C57BL/6 mouse model assessed as reduction in IL-6 mRNA level in lung at 20 mg/kg,po administrated with compound for 6 hrs followed by CLP induction and measured after 12 hrs by RT-PCR analysis; assay type: functional, organism-based; settings: time 18.0 hrs
Mus musculus [12] = experiment: Antiinflammatory activity in cecal ligation and puncture induced sepsis C57BL/6 mouse model assessed as reduction in cell effusion in BALF at 20 mg/kg,po administrated with compound for 6 hrs followed by CLP induction and measured after 12 hrs; assay type: functional, organism-based; settings: time 18.0 hrs
Mus musculus [13] = experiment: Antiinflammatory activity in cecal ligation and puncture induced sepsis C57BL/6 mouse model assessed as reduction in tissue destruction of lung at 20 mg/kg,po administrated with compound for 6 hrs followed by CLP induction and measured after 12 hrs by H and E staining based analysis; assay type: functional, organism-based; settings: time 18.0 hrs
Mus musculus [14] = experiment: Antiinflammatory activity in cecal ligation and puncture induced sepsis C57BL/6 mouse model assessed as reduction in interstitial edema in lung at 20 mg/kg,po administrated with compound for 6 hrs followed by CLP induction and measured after 12 hrs by H and E staining based analysis; assay type: functional, organism-based; settings: time 18.0 hrs
Mus musculus [15] = experiment: Antiinflammatory activity in cecal ligation and puncture induced sepsis C57BL/6 mouse model assessed as reduction in pulmonary congestion in lung at 20 mg/kg,po administrated with compound for 6 hrs followed by CLP induction and measured after 12 hrs by H and E staining based analysis; assay type: functional, organism-based; settings: time 18.0 hrs
Mus musculus [16] = experiment: Antiinflammatory activity in cecal ligation and puncture induced sepsis C57BL/6 mouse model assessed as reduction in inflammatory infiltration in lung at 20 mg/kg,po administrated with compound for 6 hrs followed by CLP induction and measured after 12 hrs by H and E staining based analysis; assay type: functional, organism-based; settings: time 18.0 hrs
Mus musculus [17] = experiment: Antiinflammatory activity against LPS induced acute lung injury C57BL/6 mouse model assessed as reduction in total protein concentration in BALF at 20 mg/kg,po administrated with compound for 30 mins followed by LPS treatment and measured after 6 hrs; assay type: functional, organism-based; settings: time 6.5 hrs
Mus musculus [18] = experiment: Antiinflammatory activity against LPS induced acute lung injury C57BL/6 mouse model assessed as reduction in total cell count in BALF at 20 mg/kg,po administrated with compound for 30 mins followed by LPS treatment and measured after 6 hrs; assay type: functional, organism-based; settings: time 6.5 hrs
Mus musculus [19] = experiment: Antiinflammatory activity against LPS induced acute lung injury C57BL/6 mouse model assessed as reduction in spleen weight at 20 mg/kg,po administrated with compound for 30 mins followed by LPS treatment and measured after 6 hrs; assay type: functional, organism-based; settings: time 6.5 hrs
Mus musculus [20] = experiment: Antiinflammatory activity against LPS induced acute lung injury C57BL/6 mouse model assessed as reduction in IL-6 level in serum at 20 mg/kg,po administrated with compound for 30 mins followed by LPS treatment and measured after 6 hrs by ELISA; assay type: functional, organism-based; settings: time 6.5 hrs
[21] = Acute toxicity in C57BL/6 mouse assessed as weight loss at 500 mg/kg,po administration measured after 3 days; assay type: organism-based; settings: in vivo, 72 h, time 3 day
[22] = Acute toxicity in C57BL/6 mouse assessed as pathological change in heart at 500 mg/kg,po administration measured upto 11 days by hematoxylin and eosin staining based assay; assay type: organism-based; settings: in vivo, 264 h, time < 11 day
[23] = Acute toxicity in C57BL/6 mouse assessed as pathological change in kidney at 500 mg/kg,po administration measured upto 11 days by hematoxylin and eosin staining based assay; assay type: organism-based; settings: in vivo, 264 h, time < 11 day
[24] = Acute toxicity in C57BL/6 mouse assessed as pathological change in liver at 500 mg/kg,po administration measured upto 11 days by hematoxylin and eosin staining based assay; assay type: organism-based; settings: in vivo, 264 h, time < 11 day
[25] = Acute toxicity in C57BL/6 mouse assessed as pathological change in lung at 500 mg/kg,po administration measured upto 11 days by hematoxylin and eosin staining based assay; assay type: organism-based; settings: in vivo, 264 h, time < 11 day
[26] = Drug concentration in Sprague-Dawley rat serum at 1 mg/kg,iv administration measured upto 24 hrs by LC-MS/MS analysis; assay type: ADME, organism-based; settings: read-out: Ct
[27] = Cmax in Sprague-Dawley rat at 1 mg/kg,iv administration measured upto 24 hrs by LC-MS/MS analysis; assay type: ADME, organism-based; settings: in vivo
[28] = AUC (0 to t) in Sprague-Dawley rat at 1 mg/kg,iv administration measured upto 24 hrs by LC-MS/MS analysis; assay type: ADME, organism-based; settings: in vivo
[29] = Cmax in Sprague-Dawley rat at 20 mg/kg,po administration measured upto 24 hrs by LC-MS/MS analysis; assay type: ADME, organism-based; settings: in vivo
[30] = AUC (0 to infinity) in Sprague-Dawley rat at 20 mg/kg,po administration measured upto 24 hrs by LC-MS/MS analysis; assay type: ADME, organism-based; settings: in vivo
[31] = Tmax in Sprague-Dawley rat at 20 mg/kg,po administration measured upto 24 hrs by LC-MS/MS analysis; assay type: ADME, organism-based; settings: in vivo
[32] = Half life in Sprague-Dawley rat at 20 mg/kg,po administration measured upto 24 hrs by LC-MS/MS analysis; assay type: ADME, organism-based; settings: in vivo
[33] = Stability of compound in simulated gastric fluid measured upto 12 hrs; assay type: physicochemical; settings: simulated gi fluid
[34] = Stability of compound in simulated intestinal fluid measured upto 12 hrs; assay type: physicochemical; settings: simulated gi fluid
[35] = Stability of compound in enzyme free simulated intestinal fluid measured upto 12 hrs; assay type: physicochemical; settings: simulated gi fluid
[36] = Stability of compound in rat serum measured upto 12 hrs; assay type: ADME, cell-free

T1 sequence (Q99836 whole entry, the tested form may be a part): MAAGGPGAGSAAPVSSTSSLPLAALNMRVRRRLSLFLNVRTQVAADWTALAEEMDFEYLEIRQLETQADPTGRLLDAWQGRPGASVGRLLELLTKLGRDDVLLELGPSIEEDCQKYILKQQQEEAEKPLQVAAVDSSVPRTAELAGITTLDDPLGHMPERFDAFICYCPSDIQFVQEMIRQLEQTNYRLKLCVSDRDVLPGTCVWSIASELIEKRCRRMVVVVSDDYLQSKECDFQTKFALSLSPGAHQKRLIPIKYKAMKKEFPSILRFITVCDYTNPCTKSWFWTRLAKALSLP

O[C@H](COc1ccc(Br)cc1)CN1CCN(Cc2cc3ccccc3[nH]2)CC1
Activity (J774.A1 [1]): Non-toxic
IC50 (J774.A1 [2]): 0.24 µM
inhibition (J774.A1 [3]): Active
inhibition (J774.A1 [4]): Active
Kd [5]: 15 µM
Activity [6]: inactive
inhibition [7]: Active
Activity (Mus musculus [8]): Active
Activity (Mus musculus [9]): Active
Activity (Mus musculus [10]): Active
Activity (Mus musculus [11]): Active
Activity (Mus musculus [12]): Active
Activity (Mus musculus [13]): Active
Activity (Mus musculus [14]): Active
Activity (Mus musculus [15]): Active
Activity (Mus musculus [16]): Active
Activity (Mus musculus [17]): Active
Activity (Mus musculus [18]): Active
Activity (Mus musculus [19]): Active
Activity (Mus musculus [20]): Active
Activity [21]: Toxic
Activity [22]: Non-toxic
Activity [23]: Non-toxic
Activity [24]: Non-toxic
Activity [25]: Non-toxic
concentration at 24 h [26]: 1080 ng/mL
Cmax [27]: 1080 ng/mL
AUC(0-t) at 24 h [28]: 691 ng·h/mL
Cmax [29]: 320 ng/mL
AUC(0-inf) [30]: 3200 ng·h/mL
Tmax [31]: 3.67 h
half-life [32]: 4.44 h
Stability [33]: Stable
Stability [34]: Stable
Stability [35]: Stable
Stability [36]: Stable
